Where only a bound is given, the exact number is not on record here.

In the test the target is T1, FAAH (Homo sapiens, UniProt O00519).
T1 construct: FAAH activity was assayed in the respective homogenates described herein (Rat brain, Mouse brain or Human brain); tissue Analytical Biological Services (ABS), Inc; host or cells: human brain cortex membrane homogenate
T1 sequence (O00519 1-579): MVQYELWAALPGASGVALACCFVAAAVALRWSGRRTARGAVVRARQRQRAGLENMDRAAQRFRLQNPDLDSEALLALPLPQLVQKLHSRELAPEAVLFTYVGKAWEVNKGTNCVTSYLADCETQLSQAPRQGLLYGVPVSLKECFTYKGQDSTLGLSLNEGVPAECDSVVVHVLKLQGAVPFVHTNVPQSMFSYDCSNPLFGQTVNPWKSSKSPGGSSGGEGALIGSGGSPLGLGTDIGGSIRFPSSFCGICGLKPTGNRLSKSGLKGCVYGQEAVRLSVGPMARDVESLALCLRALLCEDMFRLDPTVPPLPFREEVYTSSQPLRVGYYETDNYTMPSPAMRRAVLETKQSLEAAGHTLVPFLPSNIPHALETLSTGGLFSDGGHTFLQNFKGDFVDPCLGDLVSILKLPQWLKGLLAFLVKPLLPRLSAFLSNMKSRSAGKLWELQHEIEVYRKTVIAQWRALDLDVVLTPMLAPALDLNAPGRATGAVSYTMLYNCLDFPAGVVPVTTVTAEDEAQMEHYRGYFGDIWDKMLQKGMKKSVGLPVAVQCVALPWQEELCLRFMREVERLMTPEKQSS
Put plainly: FAAH inhibition, human brain membrane homogenate assay. The test is classed as biochemical. The conditions noted are these: average; FAAH extracted from human brain homogenate; read-out: Human brain FAAH Extract IC50. As for the experimental part:
About 10 g of frozen normal human brain cortex tissue was obtained (e.g., from Analytical Biological Services (ABS), Inc. (Wilmington, Del.)). The brain tissue was thawed and transferred to a large ceramic mortar on ice. 50 mL of ice-cold “homogenization buffer” (20 mM HEPES buffer, pH 7.0, with 1 mM MgCl2) was added to the mortar and the tissue was homogenized with a pestle. The homogenate was centrifuged at 36,500 g for 20 minutes at 4° C. The supernatants were discarded and the pellets were re-suspended in homogenization buffer and centrifuged as before. The supernatants were again discarded and the pellets were re-suspended in 30 mL homogenization buffer and incubated in a 37° C. water bath for 20 minutes. The homogenate was then centrifuged as before. The supernatant was discarded and the membrane pellets were re-suspended in 30 mL “resuspension buffer” (50 mM Tris-HCl buffer, pH 7.4, containing 1 mM EDTA and 3 mM MgCl2). A Bradford Protein assay was performed to determine protein concentration. The protein was aliquotted into screw cap Cryo tubes each containing ˜200 μL, flash frozen in liquid nitrogen and stored at −80° C. until used for the assay.
FAAH activity was assayed in the respective homogenates described herein (Rat brain, Mouse brain or Human brain) for certain exemplary substrate compounds using a modification of the method of Omeir et al. (1995 Life Sci 56:1999) and Fowler et al. (1997 J. Pharmacol Exp Ther 283:729). For assay of FAAH activity in rat brain membrane (RBM) homogenates, RBM homogenates (7 μg protein in 20 μL final volume of 10 mM Tris pH 6.5) were mixed with 180 μL of a mixture of the following: 2.0 μM unlabelled anandamide, 0.03 μCi radio labeled anandamide [ethanolamine 1-^3H] (40-60 Cis/mmol, product number ART-626, American Radiolabeled Chemicals, St. Louis, Mo.), 1 mg/mL Bovine Serum Albumin (fatty acid-free BSA, electrophoresis grade, Sigma, St. Louis, Mo.), 10 mM Tris-HCl (pH 6.5), and 1 mM EDTA in the presence and absence of test compounds (vehicle was DMSO at a final concentration of 1%) and incubated for 10 minutes at 37° C. Samples were placed on ice to terminate the reactions.
^3H-ethanolamine product and un-reacted ^3H-anandamide substrate were then separated either: (1) by using chloroform/methanol extraction or (2) by passing the reaction mixture through a glass fiber filter containing activated charcoal. Samples were extracted with chloroform/methanol by adding 0.4 mL of chloroform/methanol (1:1 v/v), vigorously mixing the samples, and separating the aqueous and organic phases by centrifugation. Radioactivity (corresponding to FAAH-catalyzed breakdown of ^3H-anandamide) found in aliquots (0.2 mL) of the aqueous phase was determined by liquid scintillation counting with quench correction. IC50 values were determined as described by Jonsson et al. (2001 Br. J. Pharmacol. 133:1263). Alternatively, reactions were purified using a modification of the solid-phase extraction method described by Wilson et al (2003 Anal. Biochem. 318:270). This method was modified as follows: after reactions were incubated at 37° C. for 10 minutes and chilled on ice, the reaction mixtures were acidified by adding 10 μL of sodium phosphate solution [0.5M (pH 2.0)]. Next, 90 μL aliquots of the acidified reaction mixtures were applied to activated charcoal (that had been previously washed with methanol as described by Wilson et al. (supra)) containing 80 μL of water on top of a glass fiber filter, centrifuged, and the radioactivity in the eluate was counted as described previously by Wilson et al. (supra).
Table 1 provides activity data for certain compounds tested for inhibition of FAAH using the FAAH rat, mouse and human brain homogenate assays. […]

As usually defined, the IC50 is the concentration at which inhibition is half-maximal. For the compound `Cc1c(C(=O)C(=O)Nc2cccc(Cl)c2)c2ccsc2n1Cc1ccc(Cl)cc1` [Compound I-08, 2-(6-(4-chlorobenzyl)-5-methyl-6H-thieno[2,3-b]pyrrol-4-yl)-N-(3-chlorophenyl)-2-oxoacetamide], the IC50 was determined as 797 nM.

For the compound `COc1cc(NC(=O)C(=O)c2c(C)n(Cc3ccc(Cl)cc3)c3sccc23)ccn1` [Compound I-09, 2-(6-(4-chlorobenzyl)-5-methyl-6H-thieno[2,3-b]pyrrol-4-yl)-N-(2-methoxypyridin-4-yl)-2-oxoacetamide], the IC50 was 31 nM.

`Cc1c(C(=O)C(=O)Nc2cccc(Cl)c2)c2c(n1Cc1ccc(Cl)cc1)CCCCCC2` [Compound I-10, 2-(1-(4-chlorobenzyl)-2-methyl-4,5,6,7,8,9-hexahydro-1H-cycloocta[b]pyrrol-3-yl)-N-(3-chlorophenyl)-2-oxoacetamide]: the IC50 was 605 nM.

For `COc1cc(NC(=O)C(=O)c2c3c(n(Cc4ccc(Cl)cc4)c2C)CCCCCC3)ccn1` [Compound I-11, 2-(1-(4-chlorobenzyl)-2-methyl-4,5,6,7,8,9-hexahydro-1H-cycloocta[b]pyrrol-3-yl)-N-(2-methoxypyridin-4-yl)-2-oxoacetamide], the IC50 was determined as 80 nM.

With `Cc1c(C(=O)C(=O)Nc2cccc(Cl)c2)c2c(n1Cc1ccc(Cl)cc1)CCCCC2` [Compound I-12, 2-(1-(4-chlorobenzyl)-2-methyl-1,4,5,6,7,8-hexahydrocyclohepta[b]pyrrol-3-yl)-N-(3-chlorophenyl)-2-oxoacetamide], the IC50 came to 234 nM.

Turning to `COc1cc(NC(=O)C(=O)c2c3c(n(Cc4ccc(Cl)cc4)c2C)CCCCC3)ccn1` [Compound I-13, 2-(1-(4-chlorobenzyl)-2-methyl-1,4,5,6,7,8-hexahydrocyclohepta[b]pyrrol-3-yl)-N-(2-methoxypyridin-4-yl)-2-oxoacetamide], the concentration for half-maximal inhibition (IC50) worked out at 9 nM.

For `Cc1c(C(=O)C(=O)Nc2cccc(Cl)c2)c2c(n1Cc1ccc(Cl)cc1)CCC(C)(C)C2` [Compound I-14, 2-(1-(4-chlorobenzyl)-2,5,5-trimethyl-4,5,6,7-tetrahydro-1H-indol-3-yl)-N-(3-chlorophenyl)-2-oxoacetamide], the IC50 is 202 nM.

Turning to `COc1cc(NC(=O)C(=O)c2c3c(n(Cc4ccc(Cl)cc4)c2C)CCC(C)(C)C3)ccn1` [Compound I-15, 2-(1-(4-chlorobenzyl)-2,5,5-trimethyl-4,5,6,7-tetrahydro-1H-indol-3-yl)-N-(2-methoxypyridin-4-yl)-2-oxoacetamide], the IC50 worked out at 94 nM.

Regarding `Cc1c(C(=O)C(=O)Nc2cccc(Cl)c2)c2c(n1Cc1ccc(Cl)cc1)CCCC2` [Compound I-16, 2-(1-(4-chlorobenzyl)-2-methyl-4,5,6,7-tetrahydro-1H-indol-3-yl)-N-(3-chlorophenyl)-2-oxoacetamide], the IC50 was 119 nM.

Turning to `COc1cc(NC(=O)C(=O)c2c3c(n(Cc4ccc(Cl)cc4)c2C)CCCC3)ccn1` [Compound I-18, 2-(1-(4-chlorobenzyl)-2-methyl-4,5,6,7-tetrahydro-1H-indol-3-yl)-N-(2-methoxypyridin-4-yl)-2-oxoacetamide], the 50% inhibitory concentration (IC50) amounted to 21 nM.

As to `COc1cc(NC(=O)C(=O)c2c(-c3ccccc3)c(C)n(Cc3ccc(Cl)cc3)c2C)ccn1` [Compound I-19, 2-(1-(4-chlorobenzyl)-2,5-dimethyl-4-phenyl-1H-pyrrol-3-yl)-N-(2-methoxypyridin-4-yl)-2-oxoacetamide], the IC50 was above 5000 nM.

Take `Cc1c(C(=O)C(=O)Nc2cccc(Cl)c2)c(-c2ccccc2)c(C)n1Cc1ccc(Cl)cc1` [Compound I-20, 2-(1-(4-chlorobenzyl)-2,5-dimethyl-4-phenyl-1H-pyrrol-3-yl)-N-(3-chlorophenyl)-2-oxoacetamide]: the IC50 is above 5000 nM.

Regarding `COc1cc(NC(=O)C(=O)c2cc(C)n(Cc3ccc(Cl)cc3Cl)c2C)ccn1` [Compound I-21, 2-(1-(2,4-dichlorobenzyl)-2,5-dimethyl-1H-pyrrol-3-yl)-N-(2-methoxypyridin-4-yl)-2-oxoacetamide], the IC50 is 1010 nM.

Consider `COc1ccc(Cn2c(C)cc(C(=O)C(=O)Nc3ccnc(OC)c3)c2C)cc1` [Compound I-22, 2-(1-(4-methoxybenzyl)-2,5-dimethyl-1H-pyrrol-3-yl)-N-(2-methoxypyridin-4-yl)-2-oxoacetamide], for which the concentration for half-maximal inhibition (IC50) worked out at 4110 nM.

`COc1cc(NC(=O)C(=O)c2cc(C)n(Cc3ccc(Cl)cc3)c2-c2ccccc2)ccn1` [Compound I-23, 2-(1-(4-chlorobenzyl)-5-methyl-2-phenyl-1H-pyrrol-3-yl)-N-(2-methoxypyridin-4-yl)-2-oxoacetamide]: the 50% inhibitory concentration (IC50) stood at 2560 nM.

Take `Cc1cc(C(=O)C(=O)Nc2cccc(Cl)c2)c(-c2ccccc2)n1Cc1ccc(Cl)cc1` [Compound I-24, 2-(1-(4-chlorobenzyl)-5-methyl-2-phenyl-1H-pyrrol-3-yl)-N-(3-chlorophenyl)-2-oxoacetamide]: the IC50 is above 50000 nM.

As for `Cc1c(C(=O)C(=O)Nc2cccc(Cl)c2)cc(-c2ccccc2)n1Cc1ccc(Cl)cc1` [Compound I-25, 2-(1-(4-chlorobenzyl)-2-methyl-5-phenyl-1H-pyrrol-3-yl)-N-(3-chlorophenyl)-2-oxoacetamide], the IC50 was above 50000 nM.

For the compound `Cc1c(C(=O)C(=O)Nc2ccncc2)cc(-c2ccccc2)n1Cc1ccc(Cl)cc1` [Compound I-26, 2-(1-(4-chlorobenzyl)-2-methyl-5-phenyl-1H-pyrrol-3-yl)-2-oxo-N-(pyridin-4-yl)acetamide], the half-maximal inhibitory concentration (IC50) is above 50000 nM.

The values are drawn from patent US20130109721A1, “FAAH Inhibitors” (Ironwood Pharmaceuticals, Inc., priority 2009, published 2013).
